Measurements from PubChem BioAssay AID256 (DTP/NCI, 2004).
Several values for one entry are separate records, joined by “and”; a condition that tells them apart may be missing. Identical values can stand only once. Inconclusive results and toxic doses are left out.

Test system: CD2F1 mice, L1210 leukemia ip, survival T/C
Assay: NCI In Vivo Anticancer Drug Screen. Data for tumor model L1210 Leukemia (intraperitoneal) in CD2F1 (CDF1) mice
Settings: higher = longer survival
Method in brief: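 In this screen, transplantable tumors were grown in mice given either the compound or its vehicle. Results were expressed as the treated measurement relative to the control measurement.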

[1] = endpoint: mean survival time, dose: 100.0 mg/kg/injection, schedule: Q04DX002 (ip), vehicle: saline with Tween-80
[2] = endpoint: mean survival time, dose: 50.0 mg/kg/injection, schedule: Q04DX003 (ip), vehicle: saline with Tween-80
[3] = endpoint: mean survival time, dose: 100.0 mg/kg/injection, schedule: Q04DX003 (ip), vehicle: saline with Tween-80

CCOC(=O)/C=C(\C)CO
T/C [1]: 88 % of control
T/C (endpoint: mean survival time, dose: 200.0 mg/kg/injection, schedule: Q04DX002 (ip), vehicle: saline with Tween-80): 103 % of control
T/C (endpoint: mean survival time, dose: 400.0 mg/kg/injection, schedule: Q04DX002 (ip), vehicle: saline with Tween-80): 103 % of control

BrCc1ccccc1C[P+](c1ccccc1)(c1ccccc1)c1ccccc1
T/C (endpoint: mean survival time, dose: 3.13 mg/kg/injection, schedule: Q01DX009 (ip), vehicle: saline sonified): 107 % of control
T/C (endpoint: mean survival time, dose: 6.25 mg/kg/injection, schedule: Q01DX009 (ip), vehicle: saline sonified): 96 % of control
T/C (endpoint: mean survival time, dose: 12.5 mg/kg/injection, schedule: Q04DX003 (ip), vehicle: saline sonified): 107 % of control
T/C (endpoint: mean survival time, dose: 25.0 mg/kg/injection, schedule: Q04DX003 (ip), vehicle: saline sonified): 100 % of control

COc1ccc(C(=O)C(Br)Br)cc1OC
T/C (endpoint: mean survival time, dose: 3.13 mg/kg/injection, schedule: Q04DX002 (ip), vehicle: saline with Tween-80): 112 % of control
T/C (endpoint: mean survival time, dose: 6.25 mg/kg/injection, schedule: Q04DX002 (ip), vehicle: saline with Tween-80): 100 % of control
T/C (endpoint: mean survival time, dose: 12.5 mg/kg/injection, schedule: Q04DX002 (ip), vehicle: saline with Tween-80): 100 % of control

C/C(=N\N=C(/C)c1cccc([N+](=O)[O-])c1)c1cccc([N+](=O)[O-])c1
T/C (endpoint: mean survival time, dose: 100.0 mg/kg/injection, schedule: Q04DX002 (ip), vehicle: Klucel (hydroxypropylcellulose) (HPC)): 104 % of control
T/C (endpoint: mean survival time, dose: 200.0 mg/kg/injection, schedule: Q04DX002 (ip), vehicle: Klucel (hydroxypropylcellulose) (HPC)): 97 % of control
T/C (endpoint: mean survival time, dose: 400.0 mg/kg/injection, schedule: Q04DX002 (ip), vehicle: Klucel (hydroxypropylcellulose) (HPC)): 108 % of control

COC[C@H]1OC(=O)c2coc3c2[C@@]1(C)C1=C(C3=O)[C@@H]2CCC(=O)[C@@]2(C)C[C@H]1OC(C)=O
T/C (endpoint: mean survival time, dose: 0.16 mg/kg/injection, schedule: Q01DX009 (ip), vehicle: saline): 102 % of control
T/C (endpoint: mean survival time, dose: 0.31 mg/kg/injection, schedule: Q01DX009 (ip), vehicle: saline): 98 % of control
T/C (endpoint: mean survival time, dose: 0.63 mg/kg/injection, schedule: Q01DX009 (ip), vehicle: saline): 102 % of control
T/C (endpoint: mean survival time, dose: 1.25 mg/kg/injection, schedule: Q01DX009 (ip), vehicle: saline with Tween-80): 86 % of control
T/C (endpoint: mean survival time, dose: 1.25 mg/kg/injection, schedule: Q01DX009 (ip), vehicle: saline): 110 % of control

Nc1ccn([C@@H]2C=C(CO)[C@@H](O)[C@H]2O)c(=O)n1
T/C (endpoint: median survival time, dose: 0.44 mg/kg/injection, schedule: Q01DX009 (ip), vehicle: saline): 162 % of control and 168 % of control
T/C (endpoint: median survival time, dose: 0.45 mg/kg/injection, schedule: Q01DX009 (ip), vehicle: saline): 153 % of control
T/C (endpoint: median survival time, dose: 0.67 mg/kg/injection, schedule: Q01DX009 (ip), vehicle: saline): 180 % of control (2×) and 191 % of control
T/C (endpoint: median survival time, dose: 0.67 mg/kg/injection, schedule: Q01DX009 (oral), vehicle: saline): 101 % of control
T/C (endpoint: median survival time, dose: 1.5 mg/kg/injection, schedule: Q01DX009 (oral), vehicle: saline): 155 % of control and 205 % of control
T/C (endpoint: median survival time, dose: 2.0 mg/kg/injection, schedule: Q04DX003 (ip), vehicle: saline): 171 % of control
T/C (endpoint: median survival time, dose: 2.25 mg/kg/injection, schedule: Q01DX009 (ip), vehicle: saline): 117 % of control and 246 % of control
T/C (endpoint: median survival time, dose: 2.25 mg/kg/injection, schedule: Q01DX009 (oral), vehicle: saline): 157 % of control and 225 % of control
T/C (endpoint: median survival time, dose: 4.0 mg/kg/injection, schedule: Q01DX009 (ip), vehicle: saline): 93 % of control
T/C (endpoint: median survival time, dose: 4.0 mg/kg/injection, schedule: Q04DX003 (ip), vehicle: saline): 191 % of control
T/C (endpoint: median survival time, dose: 5.05 mg/kg/injection, schedule: Q01DX009 (oral), vehicle: saline): 123 % of control and 104 % of control
T/C (endpoint: median survival time, dose: 8.0 mg/kg/injection, schedule: Q04DX003 (ip), vehicle: saline): 183 % of control
T/C (endpoint: median survival time, dose: 250.0 micrograms/kg/injection, schedule: Q03HX024 (ip), vehicle: saline): 187 % of control
T/C (endpoint: median survival time, dose: 500.0 micrograms/kg/injection, schedule: Q03HX024 (ip), vehicle: saline): 216 % of control
T/C (endpoint: median survival time, dose: 2000.0 micrograms/kg/injection, schedule: Q03HX024 (ip), vehicle: saline): 96 % of control

C=CCNC(=S)n1cnc(N)n1
T/C (endpoint: mean survival time, dose: 25.0 mg/kg/injection, schedule: Q04DX002 (ip), vehicle: saline with Tween-80): 104 % of control
T/C (endpoint: mean survival time, dose: 50.0 mg/kg/injection, schedule: Q04DX002 (ip), vehicle: saline with Tween-80): 96 % of control
T/C [1]: 104 % of control and 105 % of control

O=Nc1ccc(O)cc1
T/C [2]: 100 % of control
T/C [3]: 105 % of control and 107 % of control
T/C (endpoint: mean survival time, dose: 200.0 mg/kg/injection, schedule: Q04DX003 (ip), vehicle: saline with Tween-80): 95 % of control and 111 % of control

Cc1c2cnccc2c(C)c2c1c1ccccc1n2CCCCCCNCc1ccccc1
T/C (endpoint: mean survival time, dose: 25.0 mg/kg/injection, schedule: Q04DX003 (ip), vehicle: saline with Tween-80): 95 % of control
T/C [2]: 89 % of control
T/C [3]: 95 % of control
